From patent publication US11807835B2, “Detergent compositions containing a stabilized enzyme by phosphonates” (ECOLAB USA INC., priority 2016, dated 2023)

What was measured:
[1] = system: enzyme (protease, amylase, lipase); assay: Overall effects of phosphonates on enzyme activity (Table 3); assay type: biochemical; details: overall effect of the phosphonate on enzyme activity in the detergent use solution
Procedure, shortened: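 Protease, amylase and lipase activity in detergent use solutions with varied phosphonate levels, 4000 ppm in 5 GPG water at 120° F., sampled up to 4 h and frozen at −80° C. before assay. Activity given as % retention relative to t=0 (100%).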

[2] = system: amylase; assay: Amylase activity retention in detergent use solution (4000 ppm, 5 GPG water; ethylidene substrate EPS, HEPES buffer pH 8.0); assay type: biochemical
Procedure, shortened: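 Detergent use solution at 4000 ppm in 5 GPG water held at 120° F.; aliquots taken up to 4 h, flash-frozen, then assayed with p-nitrophenyl valerate in TRIS pH 8.0 (lipase) or EPS substrate in HEPES pH 8.0 (amylase). Retention given as % activity relative to t=0.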

**Q.** Which results are given for Diglycolamine phosphonate [DGAP]?
**A.** Stability (effects on enzyme activity) [1]: Yes; Relative Amylase Enzyme Activity ([2]; All Ash formula, phosphonate 0.3 wt-%, use solution at 120° F., time 0 min): 100.00%; Relative Amylase Enzyme Activity ([2]; All Ash formula, phosphonate 0.3 wt-%, use solution at 120° F., time 5 min): 89.94%; Relative Amylase Enzyme Activity ([2]; All Ash formula, phosphonate 0.3 wt-%, use solution at 120° F., time 10 min): 87.50%; Relative Amylase Enzyme Activity ([2]; All Ash formula, phosphonate 0.3 wt-%, use solution at 120° F., time 20 min): 88.87%; Relative Amylase Enzyme Activity ([2]; All Ash formula, phosphonate 0.3 wt-%, use solution at 120° F., time 40 min): 86.87%; Relative Amylase Enzyme Activity ([2]; All Ash formula, phosphonate 0.3 wt-%, use solution at 120° F., time 60 min): 82.06%; Relative Amylase Enzyme Activity ([2]; All Ash formula, phosphonate 0.3 wt-%, use solution at 120° F., time 90 min): 81.79%; Relative Amylase Enzyme Activity ([2]; All Ash formula, phosphonate 0.3 wt-%, use solution at 120° F., time 120 min): 75.74%; Relative Amylase Enzyme Activity ([2]; All Ash formula, phosphonate 0.3 wt-%, use solution at 120° F., time 150 min): 79.71%; Relative Amylase Enzyme Activity ([2]; All Ash formula, phosphonate 0.3 wt-%, use solution at 120° F., time 180 min): 65.75%; Relative Amylase Enzyme Activity ([2]; All Ash formula, phosphonate 0.3 wt-%, use solution at 120° F., time 210 min): 71.27%; Relative Amylase Enzyme Activity ([2]; All Ash formula, phosphonate 0.3 wt-%, use solution at 120° F., time 240 min): 70.12%; amylase stability in all ash formula ([2]; all ash formula, versus same composition with PBTC or HEDP without amine(s), FIG. 4D): more stable; Relative Amylase Enzyme Activity ([2]; base formula, phosphonate 0.3 wt-%, use solution at 120° F., time 0 min): 39.01%; Relative Amylase Enzyme Activity ([2]; base formula, phosphonate 0.3 wt-%, use solution at 120° F., time 5 min): 100.00%; Relative Amylase Enzyme Activity ([2]; base formula, phosphonate 0.3 wt-%, use solution at 120° F., time 10 min): 113.48%; Relative Amylase Enzyme Activity ([2]; base formula, phosphonate 0.3 wt-%, use solution at 120° F., time 20 min): 112.07%; Relative Amylase Enzyme Activity ([2]; base formula, phosphonate 0.3 wt-%, use solution at 120° F., time 40 min): 110.36%; Relative Amylase Enzyme Activity ([2]; base formula, phosphonate 0.3 wt-%, use solution at 120° F., time 60 min): 109.99%; Relative Amylase Enzyme Activity ([2]; base formula, phosphonate 0.3 wt-%, use solution at 120° F., time 90 min): 118.04%; Relative Amylase Enzyme Activity ([2]; base formula, phosphonate 0.3 wt-%, use solution at 120° F., time 120 min): 110.39%; Relative Amylase Enzyme Activity ([2]; base formula, phosphonate 0.3 wt-%, use solution at 120° F., time 150 min): 111.92%; Relative Amylase Enzyme Activity ([2]; base formula, phosphonate 0.3 wt-%, use solution at 120° F., time 180 min): 112.24%; Relative Amylase Enzyme Activity ([2]; base formula, phosphonate 0.3 wt-%, use solution at 120° F., time 210 min): 115.96%; Relative Amylase Enzyme Activity ([2]; base formula, phosphonate 0.3 wt-%, use solution at 120° F., time 240 min): 110.74%; Relative Amylase Enzyme Activity ([2]; base formula, phosphonate 0.6 wt-%, use solution at 120º F., time 0 min): 100.00%; Relative Amylase Enzyme Activity ([2]; base formula, phosphonate 0.6 wt-%, use solution at 120º F., time 5 min): 102.43%; Relative Amylase Enzyme Activity ([2]; base formula, phosphonate 0.6 wt-%, use solution at 120º F., time 10 min): 95.89%; Relative Amylase Enzyme Activity ([2]; base formula, phosphonate 0.6 wt-%, use solution at 120º F., time 20 min): 99.40%; Relative Amylase Enzyme Activity ([2]; base formula, phosphonate 0.6 wt-%, use solution at 120º F., time 40 min): 97.26%; Relative Amylase Enzyme Activity ([2]; base formula, phosphonate 0.6 wt-%, use solution at 120º F., time 60 min): 100.23%; Relative Amylase Enzyme Activity ([2]; base formula, phosphonate 0.6 wt-%, use solution at 120º F., time 90 min): 95.37%; Relative Amylase Enzyme Activity ([2]; base formula, phosphonate 0.6 wt-%, use solution at 120º F., time 120 min): 102.17%; Relative Amylase Enzyme Activity ([2]; base formula, phosphonate 0.6 wt-%, use solution at 120º F., time 150 min): 102.37%; Relative Amylase Enzyme Activity ([2]; base formula, phosphonate 0.6 wt-%, use solution at 120º F., time 180 min): 101.89%; Relative Amylase Enzyme Activity ([2]; base formula, phosphonate 0.6 wt-%, use solution at 120º F., time 210 min): 102.69%; Relative Amylase Enzyme Activity ([2]; base formula, phosphonate 0.6 wt-%, use solution at 120º F., time 240 min): 105.89%; Relative Amylase Enzyme Activity ([2]; base formula, phosphonate at 0.1% elemental phosphorus level, use solution at 120º F., time 0 min): 100.00%; Relative Amylase Enzyme Activity ([2]; base formula, phosphonate at 0.1% elemental phosphorus level, use solution at 120º F., time 5 min): 98.51%; Relative Amylase Enzyme Activity ([2]; base formula, phosphonate at 0.1% elemental phosphorus level, use solution at 120º F., time 10 min): 108.49%; Relative Amylase Enzyme Activity ([2]; base formula, phosphonate at 0.1% elemental phosphorus level, use solution at 120º F., time 40 min): 97.68%; Relative Amylase Enzyme Activity ([2]; base formula, phosphonate at 0.1% elemental phosphorus level, use solution at 120º F., time 60 min): 97.62%; Relative Amylase Enzyme Activity ([2]; base formula, phosphonate at 0.1% elemental phosphorus level, use solution at 120º F., time 90 min): 99.36%; Relative Amylase Enzyme Activity ([2]; base formula, phosphonate at 0.1% elemental phosphorus level, use solution at 120º F., time 120 min): 92.67%; Relative Amylase Enzyme Activity ([2]; base formula, phosphonate at 0.1% elemental phosphorus level, use solution at 120º F., time 150 min): 98.24%; Relative Amylase Enzyme Activity ([2]; base formula, phosphonate at 0.1% elemental phosphorus level, use solution at 120º F., time 180 min): 93.89%; Relative Amylase Enzyme Activity ([2]; base formula, phosphonate at 0.1% elemental phosphorus level, use solution at 120º F., time 210 min): 107.33%; Relative Amylase Enzyme Activity ([2]; base formula, phosphonate at 0.1% elemental phosphorus level, use solution at 120º F., time 240 min): 103.75%
